# Measurements as given in patent USRE38825E1, “Glyphosate tolerant plants” (Monsanto Technology LLC, priority 1990, dated 2005).
# Assays:
# [1] = test system: Pseudomonas sp. strain LBr glyphosate oxidoreductase; assay: Km of glyphosate oxidoreductase from Pseudomonas sp. strain LBr; assay type: biochemical
# Text: Using this PCR approach, glyphosate oxidoreductase genes from a number of sources have been isolated. The presence of the glyphosate oxidoreductase activity was confirmed by cloning the glyphosate oxidoreductase gene from chromosomal DNA prepared from Pseudomonas sp. strain LBr (Jacob et al., 1988) and using primers homologous to the N- and C-termini of the LBAA glyphosate oxidoreductase gene and containing the following suitable restriction cloning sites: 5′-[…] ATG-3′ (SEQ ID NO:13) and 5′-[…] AGTAC-3′ (SEQ ID NO:14). Cyclotherm parameters used for these PCR reactions is as follows: • Denature at 94° C. for 1 minute; • Anneal at 60° C. for 2 minutes; • Polymerize at 72° C. for 3 minutes, • 30 cycles, no autoextension, linked to 4° C. incubation. The expected ˜1.3 kb PCR produced was generated and following digestion with NdeI and HindIII, this fragment was cloned into pMON2123 for expression of the encoded enzyme.
# [2] = biological target: glyphosate oxidoreductase from LBAA, wild type (w1w2w3: SER84, LYS153, HIS334), SEQ ID NO:5 (Ochrobactrum sp. G-1, UniProt D2KI28, S2A); assay: Kinetic analysis of glyphosate oxidoreductase, wild type (crude E. coli lysate, glyoxylate-DNPH assay); assay type: biochemical, bacterial isolate LBAA (Pseudomonas strain LBAA)
# Text: An alternate method for the assay of glyphosate oxidoreductase involves reaction of the sample with 2,4-dinitrophenylhydrazine and determination of the amount of the glyoxylate-2,4-dinitrophenylhydrazone by HPLC analysis as described in detail in a later section.
# Prior examples of engineered herbicide resistance by enzymatic inactivation of the herbicide have utilized enzymes with an ability to bind and metabilize the herbicides much more efficiently than glyphosate oxidoreductase metabolizes glyphosate.
# The mutagenesis procedure used was that of Mn++-poisoned PCR and the template was a linearized glyphosate oxidoreductase gene plasmid containing the synthetic glyphosate oxidoreductase gene (SEQ ID NO:8). The oligonucleotide primers used were homologous to regions in the vector and flanking the glyphosate oxidoreductase gene. The PCR conditions employed were as follows: 1 minute at 94° C., 2 minutes at 55° C., and 3 minutes at 72° C. and with 35 cycles. A 5:1 ratio of dCTP+dGTP+TTP to dATP was used. The reactions contained MnCl2 at 125, 250, 375, or 500 μM. After the reaction, the amplified product was recloned into a vector containing a weak E. coli promoter. This vector was a pBR327 derivative containing the araBAD promoter and suitable cloning sites. One hundred colonies from this cloning step were then screened in E. coli GB993 for improved glyphosate tolerance and utilization phenotypes in media composed of MOPS minimal medium with glyphosate and Pi or with glyphosate alone, respectively. Growth rates were determined by measuring A550 over a 96 hour period. […] The glyphosate oxidoreductase gene was recloned into the expression vector portion and this phenotype verified. All kinetic analysis was performed on crude E. coli lysates. Putative glyphosate oxidoreductase variant proteins were overexpressed after subcloning the NcoI/HindIII variant glyphosate oxidoreductase gene into PrecA-gene10L expression vector. For overexpression in PrecA-gene10L constructs, GB993 cells containing the vector were induced at a Klett=110-120 in M9 minimal medium with 50 μg/ml nalidixic acid and allowed to grow for 2.5 hours at 37° C. with vigorous shaking. Cells were harvested by centrifugation at 4000 g, 5 minutes at 4° C., and resuspend in 100 mM Tris-HCl, pH 7.1, 1 mM EDTA, 35 mM KCl, 20% glycerol, and 1 mM benzamidine at 3 ml/g cell pellet. Lysates were prepared by breaking the cells in a French press, twice, at 1000 psi. […] Protein concentrations were determined using the Bio-Rad protein dye-binding assay. […] Ten minutes was determined to be the optimal time for the enzyme assay using 10 μg lysate. […] Enzyme activity was determined from the amount of glyoxylate-DNPH adduct formed by measuring A520 against a standard of glyoxylate. […]
smiles,measurement,setting,value
"O=C(O)CNCP(=O)(O)O [glyphosate, N-phosphonomethyl-glycine]",Km,[1],25 mM
same,VmKm,"[2]; domain switch experiment, wt (w1w2w3), substrate glyphosate",0.022
same,Km,"[2]; read-out: K for glyphosate, general statement on the glyphosate oxidoreductase enzyme",20 to 30 mM
same,VmKm (Glyp),[2]; wild type,.03
same,app Vm (Glyp),"[2]; wild type, pH 7.4, 30° C., enzyme amount by immunoblot",0.8 U/mg
